Where two headings read alike, the source gives them in different places.
How the values were obtained:
[1] = system: mouse hippocampal neuronal cell line HT22; assay: Neurotoxicity and excitotoxicity assay, HT22 cells + glutamate, erastin or RSL3, MTS cell viability; format: cell-based; conditions: Mus musculus
Experimental: The excitotoxicity model used was the mouse hippocampal neuronal HT22 cells treated with glutamate [Dixon et al., Cell, 2012, 149(5), 1060-1072]. Ferroptosis and oxidative stress are both associated in this glutamate-induced cell death [Chu et al., Neural Regen. Res., 2020, 15(3), 528-536]. Phenotypic screening was also carried out with additional cell death inducers, erastin and RSL3 ((1S,3R)-Ras-selective lethal), in HT22 and SH-SY5Y (human neuroblastoma cells). Erastin and RSL3 are well described molecules, used as chemical tools for the study of ferroptosis regulation and neuronal pathologies [Lewerenz et al., Front. Neurosci., 2018, 12: 214; Reichert et al., Int. J. Mol. Sci., 2020, 21, 8765].
Mouse hippocampal neuronal cell line (HT22, ATCC) and human neuroblastoma cell line (SH-SY5Y, ATCC) were grown in Dulbecco's Modified Eagle Medium (DMEM, Gibco) supplemented with 10% fetal bovine serum (FBS, Gibco) at 37° C. under 5% CO2 atmosphere. Neurotoxicity was induced by erastin or RSL3 and excitotoxicity was induced by glutamate. Cells were seeded in 96-well plates at 5,000 and 10,000 cells/well for HT22 and SH-SY5Y cell lines, respectively. Cells were treated with 0.5-1 μM Erastin (HT22 cells) or 10 μM Erastin (SH-SY5Y cells) or 5-10 mM glutamate (HT22 cells) or 0.5 μM RSL3 (HT22 cells) or 5 μM RSL3 (SH-SY5Y cells) for 24 h in presence of increasing concentrations of inhibitors. Cells treated with DMSO only were used as controls. Cell viability was assessed by MTS assay (CellTiter 96 AQueous One Solution Cell Proliferation assay, Promega).
In FIGS. 1, 2A and 2B, an inhibitor was added to HT22 (FIG. 1: compound 6) or SH-SY5Y (FIG. 2A: compound 6; FIG. 2B: compound 25) cells in the presence or not of cell death inducers (erastin, glutamate or RSL3). […] EC50 values for compounds 1-28 were calculated from dose-response curves using Graphpad Prism software.

Rat dopaminergic neurons = assay: Protective effect after 6-OHDA injury on rat primary dopaminergic neurons survival (TH staining); format: cell-based; conditions: for cellular death of dopaminergic neurons after 6-OHDA injury: 1 h before and during 2 days of 6-OHDA 20 μM (alone 48%), p<0.001; for rescue of dopaminergic neurons from cell death after 6-OHDA injury: at every concentration tested of 10 μM, 1 μM and 0.1 μM
Experimental: As explained in Ding et al., J Neurochem., 2004, (89), administration of 6-Hydroxydopamine (6-OHDA), a neurotoxin, has been widely used to cause the selective degeneration of dopamine (DA) neurons in in vitro and in vivo models. These models are used as Parkinson's disease models, which is characterized by the progressive loss of DA neurons of the substantia nigra.
Rat dopaminergic neurons were cultured as described by Schinelli et al., J Neurochem., 1988, 50(6). The cells were seeded at a density of 40 000 cells/well in 96 well-plates (precoated with poly-D-lysine; Greiner, Ref: 655940, Batch: E20093UL) and were cultured at 37° C. in a humidified air (95%)/CO2 (5%) atmosphere. Half of the medium was changed every 2 days with fresh medium. In these conditions, after 5 days of culture, astrocytes are present in the culture and release growth factor allowing neurons differentiation. In this condition, 2 to 5% of neurons are dopaminergic neurons.
6-OHDA (Sigma, Ref: 162957, Batch MKCK5243) was reconstituted in define culture medium at 40 μM (stock solution). The control medium was prepared in the same conditions. After 7 days of culture, primary mesencephalic neurons were pre-treated for 1 hour with test compounds or reference compound (BDNF, 50 ng/mL) and then intoxicated with 6-OHDA at a final concentration of 20 μM for 2 days incubation in order to induce a neuronal cell death of about 50%+/−5%.
After 2 days of intoxication in presence or absence of test compounds, cells were fixed by a solution of 4% paraformaldehyde (Sigma, ref 6148, Batch: SZBE2390V) for 20 min at room temperature, the control conditions were fixed as well following the same procedure. The cells were then permeabilized and nonspecific sites were blocked with a solution of phosphate buffered saline (PBS; PanBiotech; ref: P04-36500, Batch: 7701020) containing 0.1% of saponin (Sigma; ref: S7900, Batch: BCBL8667V) and 1% FCS for 15 min at room temperature. Cells were incubated with a mouse monoclonal anti-Tyrosine Hydroxylase (TH, 1/10 000, Sigma; ref: T1299, Batch: 014M4835) antibody in a solution of PBS overnight at 4° C. Antibody against TH stained dopaminergic neurons. […] Nuclei of cells were labelled by a fluorescent marker (Hoechst, Sigma; ref: B1155, Batch: 046M4048V) in the same solution. For each condition, 20 pictures per well were taken using InCell Analyzer™ 2200 (GE Healthcare) with 20× magnification. Images of each culture well were taken in same condition. Analysis of cell bodies of TH positive neurons was performed using Developer software (GE healthcare). A total of 6 data per experimental condition were provided.

[2] = 10 μM (first value of 'respectively')

| Structure (SMILES) | EC50 ([1]; HT-22, 24 h, read-out: EC50 HT22 Erastin) [µM] | EC50 ([1]; HT-22, 24 h, read-out: EC50 HT22 Glutamate) [µM] | EC50 ([1]; HT-22, 24 h, read-out: EC50 HT22 RSL3) [µM] | cellular death of dopaminergic neurons after 6-OHDA injury (Rat dopaminergic neurons; [2]) [%] | rescue of dopaminergic neurons from cell death after 6-OHDA injury (Rat dopaminergic neurons) | EC50 ([1]; HT-22, HT22 cells, 0.5 μM RSL3, 24 h, MTS, read-out: EC50 HT22 RSL3) [µM] | EC50 ([1]; HT-22, HT22 cells, 0.5-1 μM Erastin, 24 h, MTS, read-out: EC50 HT22 Erastin) [µM] | EC50 ([1]; HT-22, HT22 cells, 5-10 mM glutamate, 24 h, MTS, read-out: EC50 HT22 Glutamate) [µM] | cellular death of dopaminergic neurons after 6-OHDA injury (Rat dopaminergic neurons; 1 μM (second value of 'respectively')) [%] |
| --- | --- | --- | --- | --- | --- | --- | --- | --- | --- |
| Oc1ccc(-c2cc3ccccc3[nH]2)cc1 [Compound 1, 4-(1H-indol-2-yl)phenol] | 2.9 | 2.55 | 3.27 | 25 | partially and significantly rescue | – | – | – | – |
| Oc1ccc(-c2cc3cccnc3[nH]2)cc1 [Compound 7, 4-(1H-pyrrolo[2,3-b]pyridin-2-yl)phenol] | – | – | – | 16 | partially and significantly rescue | 14.6 | > 25 | > 25 | 24 |
